Active and inactive are the calls of the source. The rule behind the calls is not given here.
Tests used:
[1] = Metabolic stability in dog liver microsomes assessed as half life at 1 uM incubated for 120 mins in presence of NADPH; assay type: ADME, Canis lupus familiaris, Microsome
[2] = AUCinf in male Sprague-Dawley rat CSF at 1 mg/kg, iv measured upto 8 hrs by LC-MS/MS analysis; assay type: ADME, organism-based, Cerebrospinal fluid
[3] = Ex vivo binding in C57BL/6J mouse brain frontal cortex assessed as inhibition of [3H]Cimbi-36 binding at 1 mg/kg, sc measured after 220 mins by liquid scintillation counting analysis (reference value: 0%); assay type: functional; settings: 3.667 h
[4] = AUClast in beagle dog at 2 mg/kg, po measured upto 24 hrs; assay type: ADME, organism-based, Canis lupus familiaris; settings: in vivo
[5] = Half life in male Sprague-Dawley rat CSF at 1 mg/kg, iv measured upto 8 hrs by LC-MS/MS analysis; assay type: ADME, organism-based, Cerebrospinal fluid
[6] = MRTinf in beagle dog at 0.4 mg/kg, iv measured upto 24 hrs; assay type: ADME, organism-based, Canis lupus familiaris; settings: in vivo
Mus musculus [7] = test: Induction of neuroplasticity in C57BL/6J mouse assessed as increase in Homer1 mRNA expression in brain frontal cortex at 3 mg/kg, sc single dose by RT-PCR analysis; assay type: functional, organism-based
[8] = Drug excretion in Wistar rat urine at 5 mg/kg, po measured upto 48 hrs; assay type: ADME, organism-based; settings: read-out: Drug excretion
[9] = Metabolic stability in rat liver S9 fractions assessed as half life; assay type: ADME, subcellular; settings: liver S9 fraction
[10] = Tmax in Wistar rat plasma at 1 mg/kg, iv measured upto 48 hrs; assay type: ADME, organism-based
Hippocampus [11] = test: Induction of neuroplasticity in C57BL/6J mouse assessed as increase in […] mRNA expression in brain hippocampus at 0.3 mg/kg, sc single dose by RT-PCR analysis; assay type: functional, organism-based
[12] = Cmax in mouse C57BL/6J brain at 3 mg/kg, po measured after 1 hrs; assay type: ADME, organism-based
[13] = CSF to brain ratio in male Sprague-Dawley rat at 1 mg/kg, iv measured upto 8 hrs by LC-MS/MS analysis; assay type: ADME, organism-based; settings: in vivo
[14] = biological target: T1, 5-hydroxytryptamine receptor 1A (Homo sapiens) (UniProt P08908); test: Agonist activity at human 5-HT1A receptor expressed in HEK293T cells co-transfected with 22F-Glosensor assessed as inhibition of cAMP production measured after 30 mins incubation by Microbeta2Micro-plate counter analysis; assay type: functional, cell-based; settings: filed as agonist
T1 sequence (whole entry): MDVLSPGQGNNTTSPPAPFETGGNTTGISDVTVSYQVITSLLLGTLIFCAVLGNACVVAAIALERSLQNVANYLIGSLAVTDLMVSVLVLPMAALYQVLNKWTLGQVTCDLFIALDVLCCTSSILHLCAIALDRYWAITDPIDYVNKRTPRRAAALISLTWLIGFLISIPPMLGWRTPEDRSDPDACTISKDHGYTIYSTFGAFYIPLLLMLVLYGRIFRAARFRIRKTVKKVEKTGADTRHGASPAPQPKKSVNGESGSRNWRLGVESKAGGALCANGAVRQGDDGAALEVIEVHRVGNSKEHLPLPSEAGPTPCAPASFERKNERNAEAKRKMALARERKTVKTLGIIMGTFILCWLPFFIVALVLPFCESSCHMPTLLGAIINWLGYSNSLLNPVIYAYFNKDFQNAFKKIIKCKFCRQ

[15] = AUCinf in beagle dog at 0.4 mg/kg, iv measured upto 24 hrs; assay type: ADME, organism-based, Canis lupus familiaris; settings: in vivo
[16] = AUClast in Wistar rat brain at 5 mg/kg, po measured upto 48 hrs; assay type: ADME, organism-based
[17] = biological target: T1, 5-hydroxytryptamine receptor 1A (Homo sapiens); test: Displacement of [3H]-8-OH-DPAT from 5-HT1A receptor (unknown origin) assessed as inhibition binding at 10 uM relative to control
Hippocampus [18] = test: Induction of neuroplasticity in C57BL/6J mouse assessed as increase in SYN1 mRNA expression in brain hippocampus at 0.3 mg/kg, sc single dose by RT-PCR analysis; assay type: functional, organism-based
[19] = Cmax in male Sprague-Dawley rat plasma at 1 mg/kg, iv measured upto 8 hrs by LC-MS/MS analysis; assay type: ADME, organism-based
[20] = AUClast in beagle dog at 0.4 mg/kg, iv measured upto 24 hrs; assay type: ADME, organism-based, Canis lupus familiaris; settings: in vivo
[21] = biological target: 5-hydroxytryptamine receptor 2C (Homo sapiens) (UniProt P28335); test: Agonist activity at human 5-HT2C receptor expressed in HEK293 cells assessed as maximal IP2 production measured after 30 mins incubation by HTRF assay relative to control; assay type: functional, cell-based; settings: filed as agonist
Mus musculus [22] = test: Induction of neuroplasticity in C57BL/6J mouse assessed as increase in BDNF mRNA expression in brain frontal cortex at 3 mg/kg, sc single dose by RT-PCR analysis; assay type: functional, organism-based
[23] = Tmax in Wistar rat brain at 5 mg/kg, po measured upto 48 hrs; assay type: ADME, organism-based
Mus musculus [24] = test: Psychedelic effect in C57BL/6J mouse assessed as induction of 5-HT2A receptor dependent head-twitch responses by visual observation at 1 to 10 mg/kg, po measured for 120 to 150 mins relative to DOI; assay type: functional, organism-based; settings: dose 1-10 mg/kg, time lower […], time upper 150.0 min
[25] = biological target: Alpha-2A adrenergic receptor (Homo sapiens, UniProt P08913); test: Agonist activity at human recombinant adrenergic alpha-2A receptor expressed in CHO-K1 cells co-transfected with 22F-Glosensor assessed as inhibition of cAMP production measured after 30 mins incubation by Microbeta2Micro-plate counter analysis; assay type: functional, cell-based
[26] = MRTinf in male Sprague-Dawley rat plasma at 1 mg/kg, iv measured upto 8 hrs by LC-MS/MS analysis; assay type: ADME, organism-based
[27] = Metabolic stability in mouse liver microsomes assessed as half life at 1 uM incubated for 120 mins in presence of NADPH; assay type: ADME, Microsome
[28] = biological target: 5-hydroxytryptamine receptor 2B (Homo sapiens, UniProt P41595); test: Displacement of [3H]LSD from human 5-HT2B receptor expressed in HEK293 cell membrane incubated for 90 mins by microbeta liquid scintillation counting method; assay type: cell membranes
[29] = Metabolic stability in rat liver microsomes assessed as half life at 1 uM incubated for 120 mins in presence of NADPH; assay type: ADME, Microsome
Hippocampus [30] = test: Induction of neuroplasticity in C57BL/6J mouse assessed as increase in IGF1 mRNA expression in brain hippocampus at 0.3 mg/kg, sc single dose by RT-PCR analysis; assay type: functional, organism-based
Hippocampus [31] = test: Induction of neuroplasticity in C57BL/6J mouse assessed as increase in Homer1 mRNA expression in brain hippocampus at 0.3 mg/kg, sc single dose by RT-PCR analysis; assay type: functional, organism-based

Sequence of 5-hydroxytryptamine receptor 2B (P41595 whole entry): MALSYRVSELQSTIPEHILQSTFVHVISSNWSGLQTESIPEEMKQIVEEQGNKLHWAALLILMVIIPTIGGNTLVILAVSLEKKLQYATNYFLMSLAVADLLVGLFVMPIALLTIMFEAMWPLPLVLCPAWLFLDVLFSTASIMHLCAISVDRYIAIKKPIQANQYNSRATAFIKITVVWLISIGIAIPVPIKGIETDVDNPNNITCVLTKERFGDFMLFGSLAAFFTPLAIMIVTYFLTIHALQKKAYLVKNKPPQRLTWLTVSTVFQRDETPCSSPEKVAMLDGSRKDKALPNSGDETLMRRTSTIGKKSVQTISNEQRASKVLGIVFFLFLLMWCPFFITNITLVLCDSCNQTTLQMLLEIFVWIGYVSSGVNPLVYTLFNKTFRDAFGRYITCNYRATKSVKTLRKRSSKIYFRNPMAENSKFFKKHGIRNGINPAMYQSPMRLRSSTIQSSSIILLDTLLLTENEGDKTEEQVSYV
Sequence of 5-hydroxytryptamine receptor 2C (Homo sapiens) (P28335 whole entry): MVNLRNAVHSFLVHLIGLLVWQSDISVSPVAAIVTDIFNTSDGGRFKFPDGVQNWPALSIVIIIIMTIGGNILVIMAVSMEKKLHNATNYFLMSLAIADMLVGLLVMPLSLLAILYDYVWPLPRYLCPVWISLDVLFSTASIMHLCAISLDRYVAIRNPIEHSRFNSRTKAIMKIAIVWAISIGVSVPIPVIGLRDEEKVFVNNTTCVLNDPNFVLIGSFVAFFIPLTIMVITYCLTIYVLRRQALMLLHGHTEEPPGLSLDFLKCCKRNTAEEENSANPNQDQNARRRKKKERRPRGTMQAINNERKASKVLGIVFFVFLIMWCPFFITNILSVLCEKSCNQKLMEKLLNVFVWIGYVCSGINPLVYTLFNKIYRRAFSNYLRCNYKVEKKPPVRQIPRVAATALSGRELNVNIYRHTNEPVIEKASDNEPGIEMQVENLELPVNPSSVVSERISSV
Sequence of Alpha-2A adrenergic receptor (P08913 whole entry): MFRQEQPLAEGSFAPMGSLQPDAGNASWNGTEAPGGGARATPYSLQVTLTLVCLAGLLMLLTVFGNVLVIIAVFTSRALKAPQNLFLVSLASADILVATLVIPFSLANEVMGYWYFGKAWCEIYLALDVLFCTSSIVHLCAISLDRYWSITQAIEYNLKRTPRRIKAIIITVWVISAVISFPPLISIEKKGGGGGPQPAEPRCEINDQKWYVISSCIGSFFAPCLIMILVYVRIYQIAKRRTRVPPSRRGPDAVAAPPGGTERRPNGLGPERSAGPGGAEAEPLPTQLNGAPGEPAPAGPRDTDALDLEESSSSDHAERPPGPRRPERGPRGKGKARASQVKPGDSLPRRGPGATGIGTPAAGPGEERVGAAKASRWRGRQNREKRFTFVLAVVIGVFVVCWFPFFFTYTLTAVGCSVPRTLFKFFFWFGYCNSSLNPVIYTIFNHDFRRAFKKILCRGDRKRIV

COc1cc([Se]C(F)(F)F)c(OC)cc1CCN.Cl showed a half-life at 1 µM [1] greater than 2 h, an AUC(0-inf) [2] of 51.4 ng·h/mL and an inhibition in vivo at 1 mg/kg [3] of 27%. It also gave an AUC(0-t) at 24 h [4] of 2720 ng·h/mL, a half-life [5] of 1.26 h and an MRT inf [6] of 5.58 h. The Activity (Mus musculus [7]) was “Active”, the dose excreted at 48 h [8] was 0.3% and the half-life [9] was 1.27 h. For the same compound, the Tmax [10] was 4.98 min, the Activity (Hippocampus [11]) was “inactive” and the Cmax [12] was 2370 ng/g. For the same compound, the Ratio [13] was 0.016, the Emax [14] was 95% and the AUC(0-inf) [15] was 446 ng·h/mL. The AUC(0-t) at 48 h [16] was 1860 ng·h/mL, the inhibition [17] was 98% and the Activity (Hippocampus [18]) was “inactive”. It also gave a Cmax [19] of 250 ng/mL, an AUC(0-t) at 24 h [20] of 366 ng·h/mL and an Emax [21] of 91%. The Activity (Mus musculus [22]) was “Active”, the Tmax [23] was 2 h and the Activity (Mus musculus [24]) was “Active”. For the same compound, the EC50 [25] was 126 nM, the MRT inf [26] was 1.19 h and the half-life at 1 µM [27] was greater than 2 h. The Ki [28] was 14 nM, the half-life at 1 µM [29] was 0.917 h and the Activity (Hippocampus [30]) was “inactive”. The Activity (Hippocampus [31]) was “inactive”.

— ChEMBL document CHEMBL5543140 (J Med Chem, 2024)
